Measured values as given in patent US6849405B2, “Translation enhancer element of the human amyloid precursor protein gene” (The Brigham and Women's Hospital, Inc., priority 1997, dated 2005).
“Also recorded” adds a separate entry of the source.

Experiments:
[1] = tested on: L-ferritin subunit synthesis; assay: L-ferritin subunit synthesis, [35S]-methionine labeling and immunoprecipitation, primary astrocytes; assay type: cell-based; conditions: primary human fetal astrocytes, 0.5 ng/ml, 16 hours
ACT-mRNA = assay: Northern blot of ACT-mRNA, astrocytoma cells; assay type: cell-based, human; conditions: astrocytoma cells, 16 hours of IL-1 stimulation, 48 hours blot exposure
Experimental: Total RNA (10 μg) was extracted from primary astrocytes and astrocytoma cells with a RNA-STAT kit (Tel-Test). RNA samples were denatured in 50% formamide/2.2 M formaldehyde/20 mM MOPS/5 mM sodium acetate/0.5 mM EDTA, pH 7.4, at 60° C. for 10 minutes, electrophoresed on 1.0% agarose-formaldehyde gels, blotted onto Hybond-N filters and immobilized by UV crosslinking and heating filters to 80° C. Filters were prehybridized for 3 hours and hybridized overnight in a solution consisting of 50% formamide, […] denatured salmon sperm DNA, 5×SSC, 0.1% sodium dodecyl sulfate and 5×Denhardt's solution. Following hybridization, filters were washed twice for a total of 1 hour in 2×SSC/0.2% sodium dodecyl sulfate at room temperature and twice each for a total of 1 hour in 0.5×SSC/0.1% sodium dodecyl sulfate at 55° C. Equal loading was verified by ethidium bromide staining, non-specific hybridization of the ACT probe to the 28S rRNA, and by standardized hybridization to the GAPDH cDNA probe as an internal standard. The APP cDNA probe corresponded to the unique internal 1 kb fragment gel purified from the 3 kb APP cDNA (Kang et al. Nature 325: 733 (1987)), the ACT cRNA probe to a PstI/SacI fragment (536-943) in the human ACT cDNA (Chandra, et al., Biochemistry 22: 5055 (1983)) and the GAPDH probe to the human GAPDH gene (Tokunaga, et al., Cancer Res. 47: 5616 (1987)).

[2] = tested on: H-ferritin subunit synthesis; assay: H-ferritin subunit synthesis, [35S]-methionine labeling and immunoprecipitation, primary astrocytes; assay type: cell-based; conditions: primary human fetal astrocytes, 0.5 ng/ml, 16 hours
[3] = tested on: APP protein at the site of the lesion; conditions: injected into rat cerebral cortex; cited from earlier work

**Q.** What does the source list for interleukin-1 [IL-1]?
**A.** up regulation in L-ferritin subunit synthesis [1]: 25%; induction in steady-state levels of ACT-mRNA (ACT-mRNA): 6 fold; up regulation in H-ferritin subunit synthesis [2]: 4 fold; steady-state levels of APP protein at the site of the lesion [3]: increase the steady-state level of APP-protein; also recorded: increases the steady-state levels of APP protein
